Data: US20260365628A1, “SUBSTITUTED 3,4-DIHYDROQUINOLINONE INHIBITORS OF TSHR” (Septerna, Inc., priority 2022, published 2026)
pIC50: −log10 of the molar value.

biological target: T1, hTSHR (Homo sapiens, UniProt P16473); assay: hTSHR TR-FRET cAMP Assay (inhibition of M22-stimulated cAMP production); format: cell-based; conditions: Expi293F Inducible cells stably expressing hTSHR; cAMP HTRF; stimulated with EC80 of anti-TSHR antibody M22; 15 min compound preincubation, 30 min at 37° C.; read-out: Activity (IC50 bins)
T1 construct: expressed in transfected cells
T1 sequence (P16473 21-764): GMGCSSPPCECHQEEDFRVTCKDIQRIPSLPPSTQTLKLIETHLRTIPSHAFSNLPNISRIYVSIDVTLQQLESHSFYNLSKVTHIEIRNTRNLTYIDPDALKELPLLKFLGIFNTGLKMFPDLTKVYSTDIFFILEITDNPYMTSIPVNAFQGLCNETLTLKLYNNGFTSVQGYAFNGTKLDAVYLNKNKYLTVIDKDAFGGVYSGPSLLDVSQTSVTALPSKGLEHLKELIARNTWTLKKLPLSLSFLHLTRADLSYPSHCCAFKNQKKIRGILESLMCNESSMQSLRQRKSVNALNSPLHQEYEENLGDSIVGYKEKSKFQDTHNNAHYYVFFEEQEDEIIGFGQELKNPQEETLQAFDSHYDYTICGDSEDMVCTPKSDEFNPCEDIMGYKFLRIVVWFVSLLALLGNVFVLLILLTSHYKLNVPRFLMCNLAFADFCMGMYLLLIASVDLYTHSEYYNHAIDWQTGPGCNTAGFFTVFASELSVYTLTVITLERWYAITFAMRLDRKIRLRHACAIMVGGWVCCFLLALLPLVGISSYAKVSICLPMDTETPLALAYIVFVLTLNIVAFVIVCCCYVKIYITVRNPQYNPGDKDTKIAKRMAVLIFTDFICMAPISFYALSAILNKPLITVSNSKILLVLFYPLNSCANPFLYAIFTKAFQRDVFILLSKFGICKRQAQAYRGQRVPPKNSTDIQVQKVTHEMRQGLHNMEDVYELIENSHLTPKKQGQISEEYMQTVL
Summary of the method: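 Readout was a cAMP HTRF ratio of 655/620 nm after lysis, scaled between the EC80 M22 signal (0% inhibition) and no-agonist vehicle (100%). Frozen induced Expi293F-hTSHR cells saw test compounds (0.5% DMSO) for 15 min at 37 °C before 30 min of M22 stimulation at EC80.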

Compound | pIC50
CC(C)(C)NC(=O)Nc1ccc2c(c1)OC(CF)C(=O)N2Cc1ccccc1 (stereo not shown) [Example 305, 1-[4-benzyl-2-(fluoromethyl)-3-oxo-2H-1,4-benzoxazin-7-yl]-3-tert-butylurea] | 6.00 to 7.00
C[C@H](c1cncc(C(F)(F)F)n1)N1C(=O)[C@@H](C)Oc2cc(NC(=O)NC(C)(C)C)ccc21 [Example 307, 1-(tert-butyl)-3-((R)-2-methyl-3-oxo-4-((R)-1-(6-(trifluoromethyl)pyrazin-2-yl)ethyl)-3,4-dihydro-2H-benzo[b][1,4]oxazin-7-yl)urea] | 6.00 to 7.00
CC(c1cccc(OC(F)(F)F)c1F)n1c(=O)cnc2cc(NC(=O)NC(C)(C)C)ccc21 (stereo not shown) [Example 312, 1-(tert-butyl)-3-(1-(1-(2-fluoro-3-(trifluoromethoxy)phenyl)ethyl)-2-oxo-1,2-dihydroquinoxalin-6-yl)urea] | 6.00 to 7.00
C[C@@H](c1cccc(OCC(F)(F)F)c1)n1c(=O)cnc2cc(NC(=O)NC(C)(C)C)ccc21 [Example 313, (S)-1-(tert-butyl)-3-(2-oxo-1-(1-(3-(2,2,2-trifluoroethoxy)phenyl)ethyl)-1,2-dihydroquinoxalin-6-yl)urea] | < 6.00
C[C@H](c1cccc(OCC(F)(F)F)c1)n1c(=O)cnc2cc(NC(=O)NC(C)(C)C)ccc21 [Example 314, (R)-1-(tert-butyl)-3-(2-oxo-1-(1-(3-(2,2,2-trifluoroethoxy)phenyl)ethyl)-1,2-dihydroquinoxalin-6-yl)urea] | 6.00 to 7.00
C[C@@H](c1cccc(OC(F)(F)F)c1)n1c(=O)cnc2cc(NC(=O)C3CCCC3)ccc21 [Example 315, (S)—N-(2-oxo-1-(1-(3-(trifluoromethoxy)phenyl)ethyl)-1,2-dihydroquinoxalin-6-yl)cyclopentanecarboxamide] | 6.00 to 7.00
C[C@H](c1nccc(C(F)(F)F)n1)N1C(=O)[C@@H](C)Oc2cc(NC(=O)NC(C)(C)C)ccc21 [Example 317, 1-(tert-butyl)-3-((R)-2-methyl-3-oxo-4-((R)-1-(4-(trifluoromethyl)pyrimidin-2-yl)ethyl)-3,4-dihydro-2H-benzo[b][1,4]oxazin-7-yl)urea] | 6.00 to 7.00
C[C@@H](c1cccc(OC(F)(F)F)n1)n1c(=O)cnc2cc(NC(=O)CCc3cccc(C(F)(F)F)c3)ccc21 [Example 318, (S)—N-(2-oxo-1-(1-(6-(trifluoromethoxy)pyridin-2-yl)ethyl)-1,2-dihydroquinoxalin-6-yl)-3-(3-(trifluoromethyl)phenyl)propanamide] | 6.00 to 7.00
C[C@@H](c1cccc(C(F)(F)F)c1)n1c(=O)cnc2cc(NC(=O)NC3(C)CCC3)ccc21 [Example 320, (S)-1-(1-methylcyclobutyl)-3-(2-oxo-1-(1-(3-(trifluoromethyl)phenyl)ethyl)-1,2-dihydroquinoxalin-6-yl)urea] | 6.00 to 7.00
C[C@H]1Oc2cc(NC(=O)NC3(C)CCCC3)ccc2N(Cc2cccc(OC(F)(F)F)n2)C1=O [Example 321, (R)-1-(2-methyl-3-oxo-4-((6-(trifluoromethoxy)pyridin-2-yl)methyl)-3,4-dihydro-2H-benzo[b][1,4]oxazin-7-yl)-3-(1-methylcyclopentyl)urea] | > 7.00
C[C@H]1Oc2cc(NC(=O)NC3(C)CCCC3)ccc2N([C@@H](C)c2cccc(C(F)(F)F)n2)C1=O [Example 322, 1-((R)-2-methyl-3-oxo-4-((S)-1-(6-(trifluoromethyl)pyridin-2-yl)ethyl)-3,4-dihydro-2H-benzo[b][1,4]oxazin-7-yl)-3-(1-methylcyclopentyl)urea] | > 7.00
C[C@H]1Oc2cc(NC(=O)NC(C)(C)C)c(F)cc2N(Cc2cccc(C(F)F)c2)C1=O [Example 327, (R)-1-(tert-butyl)-3-(4-(3-(difluoromethyl)benzyl)-6-fluoro-2-methyl-3-oxo-3,4-dihydro-2H-benzo[b][1,4]oxazin-7-yl)urea] | > 7.00
C[C@H]1Oc2c(cc(F)c(NC(=O)NC(C)(C)C)c2F)N(Cc2ccccc2)C1=O [Example 329, (R)-1-(4-benzyl-6,8-difluoro-2-methyl-3-oxo-3,4-dihydro-2H-benzo[b][1,4]oxazin-7-yl)-3-(tert-butyl)urea] | 6.00 to 7.00
C[C@H]1Oc2cc(NC(=O)NC(C)(C)C)c(C(F)(F)F)cc2N(Cc2ccccc2)C1=O [Example 330, (R)-1-(4-benzyl-2-methyl-3-oxo-6-(trifluoromethyl)-3,4-dihydro-2H-benzo[b][1,4]oxazin-7-yl)-3-(tert-butyl)urea] | > 7.00
Cc1cc2c(cc1NC(=O)NC(C)(C)C)O[C@H](C)C(=O)N2Cc1ccccc1 [Example 332, (R)-1-(4-benzyl-2,6-dimethyl-3-oxo-3,4-dihydro-2H-benzo[b][1,4]oxazin-7-yl)-3-(tert-butyl)urea] | 6.00 to 7.00
C[C@H]1Oc2c(cc(F)c(NC(=O)NC(C)(C)C)c2F)N(Cc2cccc(C(F)F)c2)C1=O [Example 336, (R)-1-(tert-butyl)-3-(4-(3-(difluoromethyl)benzyl)-6,8-difluoro-2-methyl-3-oxo-3,4-dihydro-2H-benzo[b][1,4]oxazin-7-yl)urea] | > 7.00

The remaining lines, values ahead:

pIC50 | Compound
> 7.00 | C[C@H]1Oc2cc(NC(=O)OC3CCCC3)ccc2N(Cc2cccc(C(F)(F)F)n2)C1=O [Example 304, cyclopentyl N-[(2R)-2-methyl-3-oxo-4-{[6-(trifluoromethyl)pyridin-2-yl]methyl}-2H-1,4-benzoxazin-7-yl]carbamate]
6.00 to 7.00 | CC1(C)CCCC1C(=O)Nc1ccc2c(c1)ncc(=O)n2Cc1ccccc1 (stereo not shown) [Example 308, N-(1-benzyl-2-oxo-1,2-dihydroquinoxalin-6-yl)-2,2-dimethylcyclopentane-1-carboxamide]
6.00 to 7.00 | CC(C)(C)NC(=O)Nc1ccc2c(c1)CCC(=O)N2C1CCc2ccccc21 (stereo not shown) [Example 309, 1-(tert-butyl)-3-(1-(2,3-dihydro-1H-inden-1-yl)-2-oxo-1,2,3,4-tetrahydroquinolin-6-yl)urea]
< 6.00 | C[C@H]1Oc2cc(NC(=O)NC(C)(C)C)ccc2N([C@@H](C)c2nccc(C(F)(F)F)n2)C1=O [Example 316, 1-(tert-butyl)-3-((R)-2-methyl-3-oxo-4-((S)-1-(4-(trifluoromethyl)pyrimidin-2-yl)ethyl)-3,4-dihydro-2H-benzo[b][1,4]oxazin-7-yl)urea]
6.00 to 7.00 | C[C@@H](c1cccc(Cl)c1)n1c(=O)cnc2cc(NC(=O)NC3(C)CCC3)ccc21 [Example 319, (S)-1-(1-(1-(3-chlorophenyl)ethyl)-2-oxo-1,2-dihydroquinoxalin-6-yl)-3-(1-methylcyclobutyl)urea]
> 7.00 | C[C@H]1Oc2cc(NC(=O)NC3(C)CCCC3)ccc2N([C@@H](C)c2cccc(OC(F)(F)F)n2)C1=O [Example 323, 1-((R)-2-methyl-3-oxo-4-((S)-1-(6-(trifluoromethoxy)pyridin-2-yl)ethyl)-3,4-dihydro-2H-benzo[b][1,4]oxazin-7-yl)-3-(1-methylcyclopentyl)urea]
6.00 to 7.00 | C[C@H]1Oc2cc(NC(=O)N[C@H]3C[C@H](C(F)(F)F)C3)ccc2N([C@@H](C)c2cccc(OC(F)(F)F)c2)C1=O [Example 324, 1-((R)-2-methyl-3-oxo-4-((S)-1-(3-(trifluoromethoxy)phenyl)ethyl)-3,4-dihydro-2H-benzo[b][1,4]oxazin-7-yl)-3-((1r,3R)-3-(trifluoromethyl)cyclobutyl)urea]
6.00 to 7.00 | C[C@H]1Oc2cc(NC(=O)N[C@H]3C[C@@H](C(F)(F)F)C3)ccc2N([C@@H](C)c2cccc(OC(F)(F)F)c2)C1=O [Example 325, 1-((R)-2-methyl-3-oxo-4-((S)-1-(3-(trifluoromethoxy)phenyl)ethyl)-3,4-dihydro-2H-benzo[b][1,4]oxazin-7-yl)-3-((1s,3S)-3-(trifluoromethyl)cyclobutyl)urea]
6.00 to 7.00 | C[C@H]1Oc2cc(NC(=O)NC(C)(C)C)c(F)cc2N(Cc2ccccc2)C1=O [Example 326, (R)-1-(4-benzyl-6-fluoro-2-methyl-3-oxo-3,4-dihydro-2H-benzo[b][1,4]oxazin-7-yl)-3-(tert-butyl)urea]
6.00 to 7.00 | C[C@H]1Oc2cc(NC(=O)NC(C)(C)C)c(F)cc2N([C@@H](C)c2ccccc2)C1=O [Example 328, 1-(tert-butyl)-3-((R)-6-fluoro-2-methyl-3-oxo-4-((S)-1-phenylethyl)-3,4-dihydro-2H-benzo[b][1,4]oxazin-7-yl)urea]
< 6.00 | C[C@H](c1ccccc1)N1C(=O)[C@@H](C)Oc2cc(NC(=O)NC(C)(C)C)ccc21 [Example 331, 1-(tert-butyl)-3-((R)-2-methyl-3-oxo-4-((R)-1-phenylethyl)-3,4-dihydro-2H-benzo[b][1,4]oxazin-7-yl)urea]
> 7.00 | C[C@H]1Oc2c(cc(F)c(NC(=O)NC(C)(C)C)c2F)N(Cc2cccc(OC(F)F)c2)C1=O [Example 335, 3-tert-butyl-1-[(2R)-4-{[3-(difluoromethoxy)phenyl]methyl}-6,8-difluoro-2-methyl-3-oxo-2H-1,4-benzoxazin-7-yl]urea]
6.00 to 7.00 | CC(c1cc(C(F)(F)F)ccn1)n1c(=O)cnc2cc(NC(=O)NC3(C)CCC3)ccc21 (stereo not shown) [Example 337, 1-(1-methylcyclobutyl)-3-(2-oxo-1-(1-(4-(trifluoromethyl)pyridin-2-yl)ethyl)-1,2-dihydroquinoxalin-6-yl)urea]
6.00 to 7.00 | C[C@H]1Oc2cc(NC(=O)NC(C)(C)C)c(F)cc2N(Cc2cccc(OC(F)F)c2)C1=O [Example 338, (R)-1-(tert-butyl)-3-(4-(3-(difluoromethoxy)benzyl)-6-fluoro-2-methyl-3-oxo-3,4-dihydro-2H-benzo[b][1,4]oxazin-7-yl)urea]
6.00 to 7.00 | C[C@@H](c1cccc(OC(F)(F)F)c1)n1c(=O)cnc2cc(NC(=O)NC(C)(C)C)c(F)cc21 [Example 339, (S)-1-(tert-butyl)-3-(7-fluoro-2-oxo-1-(1-(3-(trifluoromethoxy)phenyl)ethyl)-1,2-dihydroquinoxalin-6-yl)urea]
